Experimental data taken from ChEMBL document CHEMBL6078630, “Design, synthesis, and bioactivity investigation of novel cyclic lipopeptide antibiotics targeting top-priority multidrug-resistant gram-negative bacteria” (Eur J Med Chem, 2024).
In brackets after ≈: the same amount, converted by molar mass. Bridge positions count the residues as written; N and C are the ends. Square brackets hold non-standard residues; d marks the D form. Peptide text beside a SMILES is read from it. * marks the point of attachment. X1 = CC[C@H](C)CCCCC(=O)*; Dab = NCC[C@H](N)C(=O)O

Columns and labels:
Format in all cases: functional
Pseudomonas aeruginosa [1] = experiment: Antibacterial activity against Pseudomonas aeruginosa ATCC 27853 assessed as inhibition of bacterial growth incubated 24 hrs by cation adjusted Mueller-Hinton broth based method
Acinetobacter baumannii [2] = experiment: Antibacterial activity against carbapenem-sensitive Acinetobacter baumannii clinical isolate 19-1 assessed as inhibition of bacterial growth incubated for 16 to 20 hrs by CLSI protocol based broth microdilution method; settings: time 16-20 hrs
Pseudomonas aeruginosa [3] = experiment: Antibacterial activity against carbapenem-resistant Pseudomonas aeruginosa clinical isolate ets85 assessed as inhibition of bacterial growth incubated for 24 hrs by CLSI protocol based broth microdilution method
Klebsiella pneumoniae [4] = experiment: Antibacterial activity against carbapenem-resistant Klebsiella pneumoniae clinical isolate ets80 assessed as inhibition of bacterial growth incubated for 24 hrs by CLSI protocol based broth microdilution method
Pseudomonas aeruginosa [5] = experiment: Antibacterial activity against carbapenem-resistant Pseudomonas aeruginosa clinical isolate ets5 assessed as inhibition of bacterial growth incubated for 24 hrs by CLSI protocol based broth microdilution method
Acinetobacter baumannii [6] = experiment: Antibacterial activity against carbapenem-resistant Acinetobacter baumannii clinical isolate ets178 assessed as inhibition of bacterial growth incubated for 24 hrs by CLSI protocol based broth microdilution method
Klebsiella pneumoniae [7] = experiment: Antibacterial activity against carbapenem-resistant Klebsiella pneumoniae clinical isolate KPN+19-15 infected in ICR mouse model administered intravenously with compound at 1 and 6 hrs post-infection and measured after 7 days; settings: 168 h, route iv, time 7 day
Klebsiella pneumoniae [8] = experiment: Antibacterial activity against carbapenem-resistant Klebsiella pneumoniae clinical isolate ets78 assessed as inhibition of bacterial growth incubated for 24 hrs by CLSI protocol based broth microdilution method
Escherichia coli [9] = experiment: Antibacterial activity against carbapenem-resistant Escherichia coli clinical isolate 231109W005 assessed as inhibition of bacterial growth incubated for 24 hrs by CLSI protocol based broth microdilution method
Klebsiella pneumoniae [10] = experiment: Antibacterial activity against carbapenem-resistant Klebsiella pneumoniae clinical isolate KPN+19-15 infected in ICR mouse model assessed as survival rate at 4 mg/kg, iv administered at 1 and 6 hrs post-infection and measured after 7 days relative to control; settings: 168 h, time 7 day
Pseudomonas aeruginosa [11] = experiment: Antibacterial activity against carbapenem-resistant Pseudomonas aeruginosa clinical isolate ets22 assessed as inhibition of bacterial growth incubated for 24 hrs by CLSI protocol based broth microdilution method
Pseudomonas aeruginosa [12] = experiment: Antibacterial activity against carbapenem-resistant Pseudomonas aeruginosa clinical isolate ets33 assessed as inhibition of bacterial growth incubated for 24 hrs by CLSI protocol based broth microdilution method
Acinetobacter baumannii [13] = experiment: Antibacterial activity against carbapenem-resistant Acinetobacter baumannii clinical isolate ets123 assessed as inhibition of bacterial growth incubated for 24 hrs by CLSI protocol based broth microdilution method
Escherichia coli [14] = experiment: Antibacterial activity against carbapenem-resistant Escherichia coli ATCC BAA-2340 assessed as inhibition of bacterial growth incubated for 16 to 20 hrs by CLSI protocol based broth microdilution method; settings: time 16-20 hrs
Escherichia coli [15] = experiment: Antibacterial activity against carbapenem-resistant Escherichia coli clinical isolate 231016w014 assessed as inhibition of bacterial growth incubated for 24 hrs by CLSI protocol based broth microdilution method
Klebsiella pneumoniae [16] = experiment: Antibacterial activity against carbapenem-resistant Klebsiella pneumoniae clinical isolate ets40 assessed as inhibition of bacterial growth incubated for 24 hrs by CLSI protocol based broth microdilution method
Klebsiella pneumoniae [17] = experiment: Antibacterial activity against carbapenem-resistant Klebsiella pneumoniae clinical isolate ets77 assessed as inhibition of bacterial growth incubated for 24 hrs by CLSI protocol based broth microdilution method
Klebsiella pneumoniae [18] = experiment: Antibacterial activity against carbapenem-resistant Klebsiella pneumoniae clinical isolate KPN+19-15 assessed as inhibition of bacterial growth incubated for 16 to 20 hrs by CLSI protocol based broth microdilution method; settings: time 16-20 hrs
Pseudomonas aeruginosa [19] = experiment: Antibacterial activity against carbapenem-resistant Pseudomonas aeruginosa clinical isolate ets15 assessed as inhibition of bacterial growth incubated for 24 hrs by CLSI protocol based broth microdilution method
Acinetobacter baumannii [20] = experiment: Antibacterial activity against Acinetobacter baumannii NCTC 13304 (OXA-27) assessed as inhibition of bacterial growth incubated for 16 to 20 hrs by CLSI protocol based broth microdilution method; settings: time 16-20 hrs
Pseudomonas aeruginosa [21] = experiment: Antibacterial activity against carbapenem-resistant Pseudomonas aeruginosa clinical isolate 19-3 assessed as inhibition of bacterial growth incubated for 16 to 20 hrs by CLSI protocol based broth microdilution method; settings: time 16-20 hrs
Klebsiella pneumoniae [22] = experiment: Antibacterial activity against carbapenem-resistant Klebsiella pneumoniae clinical isolate ets74 assessed as inhibition of bacterial growth incubated for 24 hrs by CLSI protocol based broth microdilution method
Pseudomonas aeruginosa [23] = experiment: Antibacterial activity against carbapenem-resistant Pseudomonas aeruginosa clinical isolate ets83 assessed as inhibition of bacterial growth incubated for 24 hrs by CLSI protocol based broth microdilution method
Escherichia coli [24] = experiment: Antibacterial activity against carbapenem-resistant Escherichia coli clinical isolate 231112E006B assessed as inhibition of bacterial growth incubated for 24 hrs by CLSI protocol based broth microdilution method
Acinetobacter baumannii [25] = experiment: Antibacterial activity against carbapenem-resistant Acinetobacter baumannii clinical isolate ets171 assessed as inhibition of bacterial growth incubated for 24 hrs by CLSI protocol based broth microdilution method
Pseudomonas aeruginosa [26] = experiment: Antibacterial activity against Pseudomonas aeruginosa ATCC 27853 assessed as inhibition of bacterial growth incubated for 16 to 20 hrs by CLSI protocol based broth microdilution method; settings: time 16-20 hrs
Klebsiella pneumoniae [27] = experiment: Antibacterial activity against carbapenem-resistant Klebsiella pneumoniae clinical isolate ets45 assessed as inhibition of bacterial growth incubated for 24 hrs by CLSI protocol based broth microdilution method
Acinetobacter baumannii [28] = experiment: Antibacterial activity against carbapenem-resistant Acinetobacter baumannii clinical isolate ets30 assessed as inhibition of bacterial growth incubated for 24 hrs by CLSI protocol based broth microdilution method
Escherichia coli [29] = experiment: Antibacterial activity against Escherichia coli ATCC BAA-2523 assessed as inhibition of bacterial growth incubated for 16 to 20 hrs by CLSI protocol based broth microdilution method; settings: time 16-20 hrs
Acinetobacter baumannii [30] = experiment: Antibacterial activity against carbapenem-resistant Acinetobacter baumannii clinical isolate ets104 assessed as inhibition of bacterial growth incubated for 24 hrs by CLSI protocol based broth microdilution method
Pseudomonas aeruginosa [31] = experiment: Antibacterial activity against carbapenem-resistant Pseudomonas aeruginosa clinical isolate ets38 assessed as inhibition of bacterial growth incubated for 24 hrs by CLSI protocol based broth microdilution method
Pseudomonas aeruginosa [32] = experiment: Antibacterial activity against carbapenem-resistant Pseudomonas aeruginosa clinical isolate ets6 assessed as inhibition of bacterial growth incubated for 24 hrs by CLSI protocol based broth microdilution method
Klebsiella pneumoniae [33] = experiment: Antibacterial activity against carbapenem-resistant Klebsiella pneumoniae clinical isolate ets26 assessed as inhibition of bacterial growth incubated for 24 hrs by CLSI protocol based broth microdilution method
Pseudomonas aeruginosa [34] = experiment: Antibacterial activity against Pseudomonas aeruginosa ATCC 27853 infected in ICR mouse model infected in ICR mouse model assessed as survival rate at 2 mg/kg, iv administered at 1 and 6 hrs post-infection and measured after 7 days relative to control; settings: ATCC 27853, 168 h, time 7 day
Pseudomonas aeruginosa [35] = experiment: Antibacterial activity against carbapenem-resistant Pseudomonas aeruginosa clinical isolate ets55 assessed as inhibition of bacterial growth incubated for 24 hrs by CLSI protocol based broth microdilution method
Klebsiella pneumoniae [36] = experiment: Antibacterial activity against carbapenem-resistant Klebsiella pneumoniae clinical isolate ets75 assessed as inhibition of bacterial growth incubated for 24 hrs by CLSI protocol based broth microdilution method
Pseudomonas aeruginosa [37] = experiment: Antibacterial activity against carbapenem-resistant Pseudomonas aeruginosa clinical isolate ets84 assessed as inhibition of bacterial growth incubated for 24 hrs by CLSI protocol based broth microdilution method
Pseudomonas aeruginosa [38] = experiment: Antibacterial activity against carbapenem-resistant Pseudomonas aeruginosa clinical isolate ets49 assessed as inhibition of bacterial growth incubated for 24 hrs by CLSI protocol based broth microdilution method
Klebsiella pneumoniae [39] = experiment: Antibacterial activity against carbapenem-resistant Klebsiella pneumoniae ATCC BAA-1705 assessed as inhibition of bacterial growth incubated for 16 to 20 hrs by CLSI protocol based broth microdilution method; settings: time 16-20 hrs
Pseudomonas aeruginosa [40] = experiment: Antibacterial activity against carbapenem-resistant Pseudomonas aeruginosa clinical isolate ets104 assessed as inhibition of bacterial growth incubated for 24 hrs by CLSI protocol based broth microdilution method

SMILES: CO[C@H]1/C=C/O[C@@]2(C)Oc3c(C)c(O)c4c(O)c(c(/C=N/N5CCN(C)CC5)c(O)c4c3C2=O)NC(=O)/C(C)=C\C=C\[C@H](C)[C@H](O)[C@@H](C)[C@@H](O)[C@@H](C)[C@H](OC(C)=O)[C@@H]1C [RIFAMPIN]
- MIC (Pseudomonas aeruginosa [1]): 32 µg/mL (≈ 38.9 µM)

SMILES: CC(C)CCCCC(=O)N[C@@H](CCN)C(=O)N[C@H](C(=O)N[C@@H](CCN)C(=O)N[C@H]1CCNC(=O)[C@H]([C@@H](C)O)NC(=O)[C@H](CCN)NC(=O)[C@H](CCN)NC(=O)[C@H](CC(C)C)NC(=O)[C@@H](Cc2ccccc2)NC(=O)[C@H](CCN)NC1=O)[C@@H](C)O.CC[C@H](C)CCCCC(=O)N[C@@H](CCN)C(=O)N[C@H](C(=O)N[C@@H](CCN)C(=O)N[C@H]1CCNC(=O)[C@H]([C@@H](C)O)NC(=O)[C@H](CCN)NC(=O)[C@H](CCN)NC(=O)[C@H](CC(C)C)NC(=O)[C@@H](Cc2ccccc2)NC(=O)[C@H](CCN)NC1=O)[C@@H](C)O (X1-[Dab]T[Dab][Dab][Dab][dF]L[Dab][Dab]T; lactam 4-C)
- MIC (Acinetobacter baumannii [2]): 0.25 µg/mL
- MIC (Pseudomonas aeruginosa [3]): 4 µg/mL
- MIC (Klebsiella pneumoniae [4]): 1 µg/mL
- MIC (Pseudomonas aeruginosa [5]): 2 µg/mL
- MIC (Acinetobacter baumannii [6]): 2 µg/mL
- ED50 (Klebsiella pneumoniae [7]): 2.7 mg/kg
- MIC (Klebsiella pneumoniae [8]): 0.5 µg/mL
- MIC (Escherichia coli [9]): < 0.06 µg/mL
- survival at 4 mg/kg (Klebsiella pneumoniae [10]): 62.5%
- MIC (Pseudomonas aeruginosa [11]): 4 µg/mL
- MIC (Pseudomonas aeruginosa [12]): 4 µg/mL
- MIC (Acinetobacter baumannii [13]): 1 µg/mL
- MIC (Escherichia coli [14]): ≤ 0.03 µg/mL
- MIC (Escherichia coli [15]): < 0.06 µg/mL
- MIC (Klebsiella pneumoniae [16]): 1 µg/mL
- MIC (Klebsiella pneumoniae [17]): 1 µg/mL
- MIC (Klebsiella pneumoniae [18]): 0.125 µg/mL
- MIC (Pseudomonas aeruginosa [19]): 1 µg/mL
- MIC (Acinetobacter baumannii [20]): 0.06 µg/mL
- MIC (Pseudomonas aeruginosa [21]): 0.25 µg/mL
- MIC (Klebsiella pneumoniae [22]): 1 µg/mL
- MIC (Pseudomonas aeruginosa [23]): 1 µg/mL
- MIC (Escherichia coli [24]): < 0.06 µg/mL
- MIC (Acinetobacter baumannii [25]): 2 µg/mL
- MIC (Pseudomonas aeruginosa [26]): 0.25 µg/mL
- MIC (Klebsiella pneumoniae [27]): 2 µg/mL
- MIC (Acinetobacter baumannii [28]): 1 µg/mL
- MIC (Escherichia coli [29]): ≤ 0.03 µg/mL
- MIC (Acinetobacter baumannii [30]): 0.125 µg/mL
- MIC (Pseudomonas aeruginosa [31]): 4 µg/mL
- MIC (Pseudomonas aeruginosa [32]): 2 µg/mL
- MIC (Klebsiella pneumoniae [33]): 2 µg/mL
- survival at 2 mg/kg (Pseudomonas aeruginosa [34]): 37.5%
- MIC (Pseudomonas aeruginosa [35]): 4 µg/mL
- MIC (Klebsiella pneumoniae [36]): 1 µg/mL
- MIC (Pseudomonas aeruginosa [37]): 0.5 µg/mL
- MIC (Pseudomonas aeruginosa [38]): 4 µg/mL
- MIC (Klebsiella pneumoniae [39]): 0.125 µg/mL
- MIC (Pseudomonas aeruginosa [40]): 4 µg/mL
